PubChem BioAssay (NCI)
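96-well plates; 48 h exposure; 5 concentrations. Endpoints by linear interpolation between flanking doses. Not reached: highest tested concentration assigned. TGI: concentration producing complete growth inhibition.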

What was measured:
Test in all cases: NCI tumour cell line growth inhibition, 48 h
NCI-H460 lung = system: NCI-H460 lung
HS 578T breast = system: HS 578T breast
SF-268 CNS = system: SF-268 CNS
BT-549 breast = system: BT-549 breast
UACC-257 melanoma = system: UACC-257 melanoma
OVCAR-4 ovarian = system: OVCAR-4 ovarian
786-0 renal = system: 786-0 renal
K-562 leukemia = system: K-562 leukemia
DU-145 prostate = system: DU-145 prostate
SR leukemia = system: SR leukemia
SF-539 CNS = system: SF-539 CNS
SK-MEL-2 melanoma = system: SK-MEL-2 melanoma
A498 renal = system: A498 renal
MDA-MB-231 breast = system: MDA-MB-231 breast
SK-MEL-28 melanoma = system: SK-MEL-28 melanoma
NCI-H23 lung = system: NCI-H23 lung
SF-295 CNS = system: SF-295 CNS
OVCAR-5 ovarian = system: OVCAR-5 ovarian
PC-3 prostate = system: PC-3 prostate
HOP-62 NSCLC = system: HOP-62 NSCLC
SN12C renal = system: SN12C renal
MALME-3M melanoma = system: MALME-3M melanoma
SNB-75 CNS = system: SNB-75 CNS
NCI-H226 lung = system: NCI-H226 lung
SNB-19 CNS = system: SNB-19 CNS
SK-OV-3 ovarian = system: SK-OV-3 ovarian
RXF 393 renal = system: RXF 393 renal
KM12 colon = system: KM12 colon
COLO 205 colon = system: COLO 205 colon
MDA-MB-435 = system: MDA-MB-435
CCRF-CEM leukemia = system: CCRF-CEM leukemia
ACHN renal = system: ACHN renal
SK-MEL-5 melanoma = system: SK-MEL-5 melanoma
EKVX NSCLC = system: EKVX NSCLC
TK-10 renal = system: TK-10 renal
HCT-15 colon = system: HCT-15 colon
U251 CNS = system: U251 CNS
HCC-2998 colon = system: HCC-2998 colon
CAKI-1 renal = system: CAKI-1 renal
OVCAR-3 ovarian = system: OVCAR-3 ovarian
T-47D breast = system: T-47D breast
HCT-116 colon = system: HCT-116 colon
HT29 colon = system: HT29 colon
IGROV1 ovarian = system: IGROV1 ovarian
MDA-N = system: MDA-N
M14 melanoma = system: M14 melanoma
OVCAR-8 ovarian = system: OVCAR-8 ovarian
UACC-62 melanoma = system: UACC-62 melanoma
SW-620 colon = system: SW-620 colon
NCI-H522 lung = system: NCI-H522 lung
LOX IMVI melanoma = system: LOX IMVI melanoma
NCI/ADR-RES ovarian = system: NCI/ADR-RES ovarian
A549 NSCLC = system: A549 NSCLC
HOP-92 NSCLC = system: HOP-92 NSCLC
HL-60(TB) leukemia = system: HL-60(TB) leukemia
MOLT-4 leukemia = system: MOLT-4 leukemia
MCF7 breast = system: MCF7 breast
UO-31 renal = system: UO-31 renal

SMILES: CC(=O)c1c(SCCN2CCCCCC2)n(-c2ccccc2)c(=S)n(-c2ccccc2)c1=O
- TGI (NCI-H460 lung): > 54.4 µM
- TGI (HS 578T breast): 64.1 µM
- TGI (SF-268 CNS): 26.3 µM
- TGI (BT-549 breast): 32.7 µM
- TGI (UACC-257 melanoma): 9.62 µM
- TGI (OVCAR-4 ovarian): 79.3 µM
- TGI (786-0 renal): 3.36 µM
- TGI (K-562 leukemia): 10.9 µM
- TGI (DU-145 prostate): 5.18 µM
- TGI (SR leukemia): 8.58 µM
- TGI (SF-539 CNS): 13.1 µM
- TGI (SK-MEL-2 melanoma): 43.2 µM
- TGI (A498 renal): 28.7 µM
- TGI (MDA-MB-231 breast): 28.1 µM
- TGI (SK-MEL-28 melanoma): 23.4 µM
- TGI (NCI-H23 lung): 38.2 µM
- TGI (SF-295 CNS): > 100 µM
- TGI (OVCAR-5 ovarian): > 69 µM
- TGI (PC-3 prostate): 14.2 µM
- TGI (HOP-62 NSCLC): > 56.4 µM
- TGI (SN12C renal): 19.5 µM
- TGI (MALME-3M melanoma): 3.51 µM
- TGI (SNB-75 CNS): 32.8 µM
- TGI (NCI-H226 lung): 61.3 µM
- TGI (SNB-19 CNS): > 100 µM
- TGI (SK-OV-3 ovarian): > 100 µM
- TGI (RXF 393 renal): 3.41 µM
- TGI (KM12 colon): > 54.1 µM
- TGI (COLO 205 colon): 3.67 µM
- TGI (MDA-MB-435): 25.5 µM
- TGI (CCRF-CEM leukemia): 1.24 µM
- TGI (ACHN renal): 3.31 µM
- TGI (SK-MEL-5 melanoma): 22.2 µM
- TGI (EKVX NSCLC): 40.4 µM
- TGI (TK-10 renal): 4.45 µM
- TGI (HCT-15 colon): 33.7 µM
- TGI (U251 CNS): 32.5 µM
- TGI (HCC-2998 colon): 14.6 µM
- TGI (CAKI-1 renal): 8.26 µM
- TGI (OVCAR-3 ovarian): 12 µM
- TGI (T-47D breast): 7.36 µM
- TGI (HCT-116 colon): 18.5 µM
- TGI (HT29 colon): 20.7 µM
- TGI (IGROV1 ovarian): 22.7 µM
- TGI (MDA-N): 20.3 µM
- TGI (M14 melanoma): 4.9 µM
- TGI (OVCAR-8 ovarian): 24.4 µM
- TGI (UACC-62 melanoma): 21 µM
- TGI (SW-620 colon): 4.96 µM
- TGI (NCI-H522 lung): 2.95 µM
- TGI (LOX IMVI melanoma): 12.5 µM
- TGI (NCI/ADR-RES ovarian): > 100 µM
- TGI (A549 NSCLC): 15.2 µM
- TGI (HOP-92 NSCLC): 20.1 µM

SMILES: COc1cc(/C=C2\N=C(c3ccccc3)N(c3cc4cc(Sc5ccccc5)ccc4[nH]3)C2=O)cc(OC)c1OC
- TGI (NCI-H460 lung): 35.2 µM
- TGI (HS 578T breast): > 75 µM
- TGI (SF-268 CNS): 18.2 µM
- TGI (BT-549 breast): 31.6 µM
- TGI (UACC-257 melanoma): 40.3 µM
- TGI (OVCAR-4 ovarian): > 75 µM
- TGI (786-0 renal): 26 µM
- TGI (K-562 leukemia): 17.9 µM
- TGI (DU-145 prostate): 37.9 µM
- TGI (SR leukemia): 12.3 µM
- TGI (SF-539 CNS): 24.6 µM
- TGI (A498 renal): 42.9 µM
- TGI (HL-60(TB) leukemia): 31.9 µM
- TGI (SK-MEL-28 melanoma): 35.8 µM
- TGI (NCI-H23 lung): > 75 µM
- TGI (SF-295 CNS): 73.2 µM
- TGI (OVCAR-5 ovarian): > 75 µM
- TGI (HOP-62 NSCLC): 41.2 µM
- TGI (MOLT-4 leukemia): 26.9 µM
- TGI (SN12C renal): 52.6 µM
- TGI (MALME-3M melanoma): 11.1 µM
- TGI (SNB-75 CNS): 56.2 µM
- TGI (NCI-H226 lung): 28.9 µM
- TGI (SNB-19 CNS): > 75 µM
- TGI (SK-OV-3 ovarian): > 75 µM
- TGI (RXF 393 renal): 26.8 µM
- TGI (KM12 colon): 56.8 µM
- TGI (COLO 205 colon): 21.3 µM
- TGI (MDA-MB-435): 31 µM
- TGI (CCRF-CEM leukemia): 51.7 µM
- TGI (ACHN renal): > 75 µM
- TGI (SK-MEL-5 melanoma): 20.4 µM
- TGI (EKVX NSCLC): 67.5 µM
- TGI (HCT-15 colon): 50.2 µM
- TGI (HCC-2998 colon): 22.9 µM
- TGI (CAKI-1 renal): > 75 µM
- TGI (MCF7 breast): 25.1 µM
- TGI (OVCAR-3 ovarian): 60.1 µM
- TGI (T-47D breast): 34.2 µM
- TGI (UO-31 renal): 48.9 µM
- TGI (HCT-116 colon): 23.9 µM
- TGI (HT29 colon): 44.8 µM
- TGI (IGROV1 ovarian): > 75 µM
- TGI (MDA-N): 15.9 µM
- TGI (M14 melanoma): 22.8 µM
- TGI (OVCAR-8 ovarian): 41.5 µM
- TGI (UACC-62 melanoma): 24.5 µM
- TGI (SW-620 colon): 68 µM
- TGI (NCI-H522 lung): 12.9 µM
- TGI (LOX IMVI melanoma): 22.2 µM
- TGI (NCI/ADR-RES ovarian): 59.1 µM
- TGI (A549 NSCLC): > 75 µM
- TGI (HOP-92 NSCLC): 29.8 µM

SMILES: CC(C)=C1C(=O)c2c(Cl)sc(Cl)c2C1=O
- TGI (NCI-H460 lung): > 100 µM
- TGI (HS 578T breast): 80.2 µM
- TGI (SF-268 CNS): 79.5 µM
- TGI (BT-549 breast): 42.9 µM
- TGI (UACC-257 melanoma): 43 µM
- TGI (OVCAR-4 ovarian): 34.5 µM
- TGI (786-0 renal): 74.9 µM
- TGI (K-562 leukemia): > 100 µM
- TGI (DU-145 prostate): 62.1 µM
- TGI (SR leukemia): > 100 µM
- TGI (SF-539 CNS): 50.5 µM
- TGI (SK-MEL-2 melanoma): 50.6 µM
- TGI (A498 renal): > 100 µM
- TGI (MDA-MB-231 breast): 57.4 µM
- TGI (HL-60(TB) leukemia): 90.7 µM
- TGI (SK-MEL-28 melanoma): 58.3 µM
- TGI (NCI-H23 lung): 36.6 µM
- TGI (SF-295 CNS): > 100 µM
- TGI (OVCAR-5 ovarian): > 100 µM
- TGI (HOP-62 NSCLC): > 100 µM
- TGI (MOLT-4 leukemia): 94.7 µM
- TGI (SN12C renal): 48 µM
- TGI (MALME-3M melanoma): 44.5 µM
- TGI (SNB-75 CNS): 59.9 µM
- TGI (NCI-H226 lung): > 100 µM
- TGI (SK-OV-3 ovarian): > 100 µM
- TGI (KM12 colon): 33.8 µM
- TGI (COLO 205 colon): 38.2 µM
- TGI (MDA-MB-435): 39 µM
- TGI (CCRF-CEM leukemia): > 100 µM
- TGI (ACHN renal): 40.8 µM
- TGI (SK-MEL-5 melanoma): > 100 µM
- TGI (EKVX NSCLC): 81.1 µM
- TGI (TK-10 renal): 56.7 µM
- TGI (HCT-15 colon): 43.3 µM
- TGI (U251 CNS): 46.3 µM
- TGI (CAKI-1 renal): 32.7 µM
- TGI (MCF7 breast): > 100 µM
- TGI (OVCAR-3 ovarian): 75.1 µM
- TGI (T-47D breast): 97.6 µM
- TGI (UO-31 renal): 60.4 µM
- TGI (HCT-116 colon): 33 µM
- TGI (HT29 colon): 67.8 µM
- TGI (IGROV1 ovarian): 46 µM
- TGI (MDA-N): 64 µM
- TGI (M14 melanoma): 37.9 µM
- TGI (OVCAR-8 ovarian): 38.3 µM
- TGI (UACC-62 melanoma): 38.3 µM
- TGI (SW-620 colon): 70.5 µM
- TGI (NCI-H522 lung): 32.6 µM
- TGI (LOX IMVI melanoma): 34.2 µM
- TGI (NCI/ADR-RES ovarian): 54.5 µM
- TGI (A549 NSCLC): 81.8 µM
- TGI (HOP-92 NSCLC): 45.5 µM
